A short description of data set [1]: Stability of inactivators at 37°C (spectrophotometric half life). In kind it is physicochemical. Here is the method: Inactivators (10mM in DMSO) were diluted to 0.1mM in prewarmed degassed buffer I (1mM EDTA, 50mM Tris pH 8.3) or PBS (pH 7-7.2). […] Samples were immediately transferred to a CARY13 spectrophotometer (cuvette block held at 37°C) and scanned at an appropriate wavelength (according to the spectral properties of the compound) at 3-10 minute intervals for up to 80 hours. The results were expressed as percentage absorbance change versus time and T1/2 values (half life) extrapolated from this.

In another data set the test system is Raji cells. The data set is described as follows: Sensitization of Raji cells to BCNU (XTT assay). In kind it is cell-based, human. The settings on record: BCNU, 2 hour pretreatment; for Raji sensitization (D90.^C/D90.^I) 0.5µM: inactivator 0.5µM; for Raji sensitization (D90.^C/D90.^I) 1.0µM: inactivator 1.0µM; for Raji sensitization (D90.^C/D90.^I) O.1µM: inactivator O.1µM. Here is the method:
Following a 2 hour incubation at 37°C, medium containing either increasing doses of BCNU, temozolomide or equivalent vehicle was added and the cells allowed to grow for 6 days. At this time XTT solution was added and the cells incubated for a further 4 hours at 37°C. The resulting red/orange formazan reaction product was quantified by measuring absorption at 450nm on a microtitre platereader.
(In general: Tetrazolium dyes change colour on reduction, which living cells bring about.)

In another data set the test system is A375M cells. The data set is described as follows: Sensitization of A375M cells to BCNU (MTT assay). In kind it is cell-based, human. Conditions: for A375M sensitization (D50.^C/D50.^I) 1.0uM: inactivator 1.0uM 2 hours before. Here is the method: Sensitization of A375M cells to the cytotoxic effects of BCNU was analysed by MTT assay ^24 differing from the XTT assay described above as follows. […] After 6 days MTT solution (4mg/ml) was added and cells incubated for 3 hours at 37°C. Medium was aspirated and the resulting purple formazan crystals were solubilised in DMSO (120μl) and cell viability was quantified by measuring absorption at 540nm using a microtitre plate reader.

Data set [2] addresses T1, ATase (Homo sapiens, UniProt P16455).
T1 sequence (P16455 1-207): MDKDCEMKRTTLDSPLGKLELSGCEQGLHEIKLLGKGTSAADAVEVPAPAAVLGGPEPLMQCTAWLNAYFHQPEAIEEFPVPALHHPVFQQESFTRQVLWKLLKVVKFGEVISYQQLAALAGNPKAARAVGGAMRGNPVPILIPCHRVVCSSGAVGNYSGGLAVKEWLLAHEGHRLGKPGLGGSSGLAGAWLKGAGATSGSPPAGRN
The data set is described as follows: In vitro ATase inactivation assay with purified recombinant human ATase. The format is biochemical. Details: made in house. The protocol: The cDNA cloning and overexpression of the human ATase has been reported previously^23. Purification of the recombinant proteins was achieved either by affinity chromatography through a DNA-cellulose column as described by Wilkinson et al.,^25, 26, or by DEAE-cellulose ion-exchange chromatography. For the latter, the ATase protein was partially purified by ammonium sulphate precipitation (30 - 60%) and dialysed against 10 mM Tris-HCl pH 7.5, 1 mM DTT, 2 mM EDTA, 10% glycerol, before loading on a DEAF-cellulose column. The ATase was then eluted with a 0-0.1 M NaCl gradient.
Compounds to be tested were dissolved in DMSO to a final concentration of 10 mM and diluted just before use in buffer I containing 1 mg/ml bovine serum albumin (IBSA). Recombinant ATase was diluted in IBSA and titrated in order that the reaction be conducted under ATase, and not substrate, limiting conditions. In each assay, fixed amounts of ATase (60-75 fmol) were incubated with varying amounts of 0^6-benzylguanine, or test compound in a total volume of 200 µl of IBSA containing 10 µg of calf thymus DNA at 37°C for 1 hour. The [^3H]-methylated-DNA substrate (100 µl containing 6.7 µg of DNA and 100 fmol of 0^6-methylguanine) was added and incubation continued at 37° for 1 hour, until the reaction was completed. Following acid hydrolysis of the DNA as previously described^21 the [^3H]-methylated protein was recovered and quantitated by liquid scintillation counting. Samples were typically assayed in duplicate and experiments repeated several times. I50 is the concentration of inactivator required to produce a 50% reduction in ATase activity.

The target in data set [3] is T1, ATase. The data set is described as follows: Inactivation of ATase activity in Raji cells. In kind it is cell-based. The settings on record: Raji cells, 2 hours at 37°C; read-out: Raji I50. Also noted: endogenous in cells; host or cells: Raji. The protocol: Mammalian cells were cultured under standard conditions. For example, Raji (a human lymphoblastoid cell line from a Burkitt's lymphoma) cells were grown in suspension culture in RPMI medium supplemented with 10% horse serum. A375M cells are human melanoma cells from which the xenografts described below were established following subcutaneous injection into nude mice: WiDr cells are a human colon carcinoma cell line: Hamster+120 cells are a mitozolomide-selected subline of a Chinese hamster lung fibroblast V79 cell line called RJKO: Yoshida cells are a rat carcinosarcoma cell line and YRbus is a busulphan resistant subline thereof: XP cells are an SV40-transformed fibroblast cell line originally from the skin of a Xeroderma pigmentosum patient, pHMGhAT2b cells are a clone of these cells that have been transfected with a mammalian cell expression vector containing the human ATase cDNA and pHMGla cells are a clone that have been transfected with the expression vector only (i.e. one not containing the human ATase cDNA). Cell pellets were resuspended in cold (4°C) buffer I containing 2 µg/ml leupeptin and sonicated for 10 seconds at 12 µ peak to peak distance. After cooling in ice, the cells were sonicated for a further 10 seconds at 18 µ. Immediately after sonication, 0.01 volumes of 8.7 mg/ml phenylmethanesulphonylfluoride in ethanol was added and the sonicates centrifuged at 15 000 g for 10 minutes at 4°C to pellet cell debris. The supernatant was kept for determination of ATase activity (see below).
Cells were diluted to 10^6/ml in culture medium containing either the appropriate concentration of inactivator or an equivalent volume of vehicle (DMSO). Following incubation at 37°C for 2 hours the cells were harvested by centrifugation, washed twice with PBS and the resulting cell pellets (between 1-2 x 10^7 per pellet) stored at -20°C.

The mark [4] stands for this setting: 0.1mM in PBS (pH 7-7.2), read-out: T1/2(h) in PBS (converted).

Read-outs that look alike come from different tables or passages of the source. Bounds are passed on as bounds.

Turning to `Nc1nc(OCc2ccc3ccccc3c2)c2nc[nH]c2n1` [B.4213, O^6-(2-naphthylmethyl)guanine], in data set [1] (setting [4]), the half-life at 100 µM was more than 16 h. For the same compound, in the data set on Raji cells, the “Raji sensitization (D90.^C/D90.^I) 0.5µM” value was 2.1, the “Raji sensitization (D90.^C/D90.^I) 1.0µM” value worked out at 2.9 and the “Raji sensitization (D90.^C/D90.^I) O.1µM” value amounted to 1.2. Besides, the “A375M sensitization (D50.^C/D50.^I) 1.0uM” value with A375M cells is 2.0. Also, the IC50 on ATase [2] turned out to be 150 nM. The IC50 on ATase [3] stood at 30 nM.
`Cc1ccc(COc2nc(N)nc3[nH]cnc23)s1` [B.4220, O^6-(5-methylthenyl)guanine]: the half-life at 100 µM in data set [1] (setting [4]) was more than 16 h. In the data set with Raji cells, the “Raji sensitization (D90.^C/D90.^I) 0.5µM” value is 1.0, the “Raji sensitization (D90.^C/D90.^I) 1.0µM” value was 1.0 and the “Raji sensitization (D90.^C/D90.^I) O.1µM” value was 1.0. The “A375M sensitization (D50.^C/D50.^I) 1.0uM” value in the data set with A375M cells turned out to be 1.3. For the same compound, the IC50 at ATase [2] was found to be 9000 nM. For the same compound, on ATase [3], the IC50 was more than 1000 nM.
In the case of `Cc1ccc(COc2nc(N)nc3[nH]cnc23)o1` [B.4221, O^6-(5-methylfurfuryl)guanine], the half-life at 100 µM in data set [1] (setting [4]) was more than 16 h. Moreover, in the data set with Raji cells, the “Raji sensitization (D90.^C/D90.^I) 0.5µM” value is 1.0, the “Raji sensitization (D90.^C/D90.^I) 1.0µM” value is 1.0 and the “Raji sensitization (D90.^C/D90.^I) O.1µM” value is 1.0. The “A375M sensitization (D50.^C/D50.^I) 1.0uM” value in the data set with A375M cells came to 1.0. Also, the IC50 on ATase [2] was determined as 10000 nM. For the same compound, at ATase [3], the IC50 is more than 1000 nM.
On to `Cc1ccsc1COc1nc(N)nc2[nH]cnc12` [B.4222, O^6-(3-methylthenyl)guanine], for which, in data set [1] (setting [4]), the half-life at 100 µM was more than 16 h. Also, in the data set on Raji cells, the “Raji sensitization (D90.^C/D90.^I) 0.5µM” value is listed as 1.9, the “Raji sensitization (D90.^C/D90.^I) 1.0µM” value amounted to 2.1 and the “Raji sensitization (D90.^C/D90.^I) O.1µM” value is listed as 1.4. The “A375M sensitization (D50.^C/D50.^I) 1.0uM” value in the data set on A375M cells is 1.4. Further, on ATase [2], the IC50 was 650 nM. Besides, the IC50 on ATase [3] was 470 nM.
`Nc1nc(OCc2cc3ccccc3s2)c2nc[nH]c2n1` [B.4226, O^6-(2-benzo[b]thienylmethyl)guanine]: the half-life at 100 µM in data set [1] (setting [4]) is 6.7 h. Further, the half-life at 100 µM in data set [1] (0.1mM in buffer I (1mM EDTA, 50mM Tris pH 8.3), read-out: T1/2(h) in Buffer I (converted)) was 9.7 h. For the same compound, in the data set on Raji cells, the “Raji sensitization (D90.^C/D90.^I) 0.5µM” value is 1.6, the “Raji sensitization (D90.^C/D90.^I) 1.0µM” value is on record as 10.0 and the “Raji sensitization (D90.^C/D90.^I) O.1µM” value is recorded as 1.6. Moreover, in the data set on A375M cells (inactivator 0.5uM 2 hours before), the “A375M sensitization (D50.^C/D50.^I) 0.5uM” value was 3.8. For the same compound, the “A375M sensitization (D50.^C/D50.^I) 5.0uM” value in the data set on A375M cells (inactivator 5.0uM 2 hours before) is listed as 4.5. At ATase [2], the IC50 was 30 nM. The IC50 on ATase [3] amounted to 60 nM.
As to `COC(=O)c1ccc(COc2nc(N)nc3[nH]cnc23)o1` [B.4229, O^6-(5-methoxycarbonylfurfuryl)guanine], the half-life at 100 µM in data set [1] (setting [4]) is more than 16 h. Also, in the data set on Raji cells, the “Raji sensitization (D90.^C/D90.^I) 0.5µM” value came out at 2.1, the “Raji sensitization (D90.^C/D90.^I) 1.0µM” value is 2.5 and the “Raji sensitization (D90.^C/D90.^I) O.1µM” value is 1.2. The “A375M sensitization (D50.^C/D50.^I) 1.0uM” value in the data set on A375M cells is 1.8. Besides, the IC50 on ATase [2] came to 90 nM. On ATase [3], the IC50 came out at 250 nM.
For the compound `Nc1nc(OCc2ccc(C(=O)O)o2)c2nc[nH]c2n1` [B.4234, O^6-(5-carboxyfurfuryl)guanine], in data set [1] (setting [4]), the half-life at 100 µM is more than 16 h. In the data set with Raji cells, the “Raji sensitization (D90.^C/D90.^I) 0.5µM” value is listed as 1.0, the “Raji sensitization (D90.^C/D90.^I) 1.0µM” value amounted to 1.0 and the “Raji sensitization (D90.^C/D90.^I) O.1µM” value stood at 1.0. Further, the “A375M sensitization (D50.^C/D50.^I) 1.0uM” value in the data set on A375M cells came to 0.8. Moreover, the IC50 on ATase [2] is 60000 nM. Moreover, the IC50 on ATase [3] is more than 1000 nM.
